What was measured:
[1] = target: T1, Androgen receptor (Rattus norvegicus, UniProt P15207); format: functional
T1 sequence (P15207 whole entry): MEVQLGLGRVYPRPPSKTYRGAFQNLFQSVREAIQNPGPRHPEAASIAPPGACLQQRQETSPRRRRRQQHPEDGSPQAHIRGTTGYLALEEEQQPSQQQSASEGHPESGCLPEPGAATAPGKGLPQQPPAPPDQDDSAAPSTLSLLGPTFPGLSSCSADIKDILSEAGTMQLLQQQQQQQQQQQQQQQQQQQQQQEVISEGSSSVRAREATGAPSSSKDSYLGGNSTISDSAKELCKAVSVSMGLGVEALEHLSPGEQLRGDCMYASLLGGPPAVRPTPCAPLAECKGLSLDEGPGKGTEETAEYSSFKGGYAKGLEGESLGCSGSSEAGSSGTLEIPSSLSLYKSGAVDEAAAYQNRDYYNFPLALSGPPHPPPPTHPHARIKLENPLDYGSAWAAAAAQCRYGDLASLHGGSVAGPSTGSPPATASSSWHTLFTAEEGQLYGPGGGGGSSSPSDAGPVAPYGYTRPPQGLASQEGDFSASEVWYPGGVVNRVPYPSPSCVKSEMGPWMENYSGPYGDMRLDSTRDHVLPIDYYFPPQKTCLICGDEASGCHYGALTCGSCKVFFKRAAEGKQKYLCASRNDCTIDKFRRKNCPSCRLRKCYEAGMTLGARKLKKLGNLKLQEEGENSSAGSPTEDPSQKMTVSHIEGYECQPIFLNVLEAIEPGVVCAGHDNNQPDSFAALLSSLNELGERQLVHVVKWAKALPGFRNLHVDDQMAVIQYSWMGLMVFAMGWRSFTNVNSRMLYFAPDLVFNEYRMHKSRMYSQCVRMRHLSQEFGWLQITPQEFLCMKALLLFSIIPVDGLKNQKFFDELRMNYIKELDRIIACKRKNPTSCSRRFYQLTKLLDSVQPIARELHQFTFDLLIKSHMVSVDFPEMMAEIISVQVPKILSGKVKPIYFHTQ

[2] = target: T2, Retinoic acid receptor beta (Homo sapiens, UniProt P10826); format: functional, cell-based
T2 sequence (P10826 whole entry): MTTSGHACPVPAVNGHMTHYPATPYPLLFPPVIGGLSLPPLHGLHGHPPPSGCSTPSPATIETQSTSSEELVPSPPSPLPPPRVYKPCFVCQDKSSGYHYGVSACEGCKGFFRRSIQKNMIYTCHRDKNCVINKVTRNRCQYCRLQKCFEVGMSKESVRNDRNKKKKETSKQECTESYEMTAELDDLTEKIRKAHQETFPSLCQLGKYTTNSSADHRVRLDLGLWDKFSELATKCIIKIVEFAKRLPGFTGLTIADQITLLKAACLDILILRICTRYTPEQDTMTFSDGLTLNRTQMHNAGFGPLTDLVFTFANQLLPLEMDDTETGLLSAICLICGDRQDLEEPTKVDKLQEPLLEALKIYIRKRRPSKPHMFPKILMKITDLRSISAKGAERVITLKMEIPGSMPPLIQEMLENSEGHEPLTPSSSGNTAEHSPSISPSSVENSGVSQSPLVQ

[3] = target: T2, Retinoic acid receptor beta; format: functional, cell-based; remark: listed apart in the source
[4] = target: T3, Retinoic acid receptor gamma (Homo sapiens, UniProt P13631); format: functional, cell-based
T3 sequence (P13631 whole entry): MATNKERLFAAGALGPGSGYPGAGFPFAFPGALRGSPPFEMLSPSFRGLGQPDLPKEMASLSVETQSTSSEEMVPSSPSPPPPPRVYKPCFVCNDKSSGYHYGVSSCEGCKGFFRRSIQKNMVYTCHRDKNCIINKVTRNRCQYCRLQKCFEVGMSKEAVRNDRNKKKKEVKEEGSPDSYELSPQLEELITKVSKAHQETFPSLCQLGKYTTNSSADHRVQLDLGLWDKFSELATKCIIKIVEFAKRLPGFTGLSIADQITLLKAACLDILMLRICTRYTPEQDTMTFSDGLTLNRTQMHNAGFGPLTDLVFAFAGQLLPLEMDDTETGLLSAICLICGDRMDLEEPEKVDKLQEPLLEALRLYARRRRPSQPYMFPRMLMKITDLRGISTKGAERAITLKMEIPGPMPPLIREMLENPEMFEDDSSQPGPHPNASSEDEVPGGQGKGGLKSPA

[5] = target: T4, Retinoic acid receptor alpha (Homo sapiens, UniProt P10276); format: functional, cell-based
T4 sequence (P10276 whole entry): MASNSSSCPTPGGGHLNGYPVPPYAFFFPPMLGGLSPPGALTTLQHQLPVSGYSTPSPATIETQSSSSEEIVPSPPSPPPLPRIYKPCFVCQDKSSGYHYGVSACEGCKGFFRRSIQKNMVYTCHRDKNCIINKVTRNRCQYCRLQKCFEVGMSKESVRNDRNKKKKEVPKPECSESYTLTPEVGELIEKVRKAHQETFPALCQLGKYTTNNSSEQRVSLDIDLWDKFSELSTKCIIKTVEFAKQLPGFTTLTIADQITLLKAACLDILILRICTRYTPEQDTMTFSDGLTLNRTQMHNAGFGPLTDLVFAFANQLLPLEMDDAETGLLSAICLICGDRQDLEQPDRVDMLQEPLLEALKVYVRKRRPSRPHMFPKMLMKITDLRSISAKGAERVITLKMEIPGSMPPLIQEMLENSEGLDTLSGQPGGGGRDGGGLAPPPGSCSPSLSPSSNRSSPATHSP

[6] = target: T5, Substance-K receptor (Homo sapiens, UniProt P21452)
T5 sequence (P21452 whole entry): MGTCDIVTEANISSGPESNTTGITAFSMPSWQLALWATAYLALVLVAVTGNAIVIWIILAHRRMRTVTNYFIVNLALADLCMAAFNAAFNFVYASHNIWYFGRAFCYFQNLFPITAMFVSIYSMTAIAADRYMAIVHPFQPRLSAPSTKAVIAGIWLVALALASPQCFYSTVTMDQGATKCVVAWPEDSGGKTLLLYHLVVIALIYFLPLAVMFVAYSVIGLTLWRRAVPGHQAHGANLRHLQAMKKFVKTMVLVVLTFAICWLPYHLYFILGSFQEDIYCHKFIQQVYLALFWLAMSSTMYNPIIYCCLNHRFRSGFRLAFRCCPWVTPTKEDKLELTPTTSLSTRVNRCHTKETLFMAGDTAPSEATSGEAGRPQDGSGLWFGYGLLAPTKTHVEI
Further: assay procedure not described here.

Compound: CCN(CC)CCn1c(=O)c(Cc2ccc(OC)cc2)nc2ccccc21 [CAROVERINE]
- AC50 [1]: > 30 µM

Compound: CC(C)/N=c1\cc2n(-c3ccc(Cl)cc3)c3ccccc3nc-2cc1Nc1ccc(Cl)cc1 [CLOFAZIMINE]
- AC50 [2]: > 30 µM
- AC50 [3]: > 30 µM
- AC50 [4]: > 30 µM
- AC50 [5]: > 30 µM

Compound: CCOC(=O)[C@H](CCc1ccccc1)N[C@@H](C)C(=O)N1Cc2ccccc2C[C@H]1C(=O)O
- AC50 [6]: > 10 µM

— ChEMBL document CHEMBL5291721, “A preclinical secondary pharmacology resource illuminates target-adverse drug reaction associations of marketed drugs” (Nat Commun, 2023)
